Target: T1, chimeric human H3 receptor (Homo sapiens, UniProt Q9Y5N1)
T1 construct: rat Galpha-i2 (Gnai2, rat); made in house; host or cells: Sf9 insect cells (baculovirus); P2 membranes
Assay: Chimeric human H3 receptor screening GTP binding assay (inhibition of histamine-stimulated GTP-gamma35S binding, Example 8)
Assay type: biochemical
Settings: 1 h; assay described in Example 8; symbol "!" in column headed Ki; read-out: Ki ("!": percent inhibition of agonist-induced GTP-gammaS binding to H3)
Procedure, shortened: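 Sf9 membranes co-expressing chimeric human H3 receptor and heterotrimeric G-protein (35 μg protein) incubated 60 min at room temperature with 4 μM compound, 1 μM histamine and 125 pM GTP-gamma35S in pH 7.4 buffer with 10 μM GDP. Filter-bound radioactivity, nonspecific (10 μM GTP-gammaS) subtracted, reported as % inhibition of histamine signal.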

T1 sequence (Q9Y5N1 with tags, fused parts or gaps): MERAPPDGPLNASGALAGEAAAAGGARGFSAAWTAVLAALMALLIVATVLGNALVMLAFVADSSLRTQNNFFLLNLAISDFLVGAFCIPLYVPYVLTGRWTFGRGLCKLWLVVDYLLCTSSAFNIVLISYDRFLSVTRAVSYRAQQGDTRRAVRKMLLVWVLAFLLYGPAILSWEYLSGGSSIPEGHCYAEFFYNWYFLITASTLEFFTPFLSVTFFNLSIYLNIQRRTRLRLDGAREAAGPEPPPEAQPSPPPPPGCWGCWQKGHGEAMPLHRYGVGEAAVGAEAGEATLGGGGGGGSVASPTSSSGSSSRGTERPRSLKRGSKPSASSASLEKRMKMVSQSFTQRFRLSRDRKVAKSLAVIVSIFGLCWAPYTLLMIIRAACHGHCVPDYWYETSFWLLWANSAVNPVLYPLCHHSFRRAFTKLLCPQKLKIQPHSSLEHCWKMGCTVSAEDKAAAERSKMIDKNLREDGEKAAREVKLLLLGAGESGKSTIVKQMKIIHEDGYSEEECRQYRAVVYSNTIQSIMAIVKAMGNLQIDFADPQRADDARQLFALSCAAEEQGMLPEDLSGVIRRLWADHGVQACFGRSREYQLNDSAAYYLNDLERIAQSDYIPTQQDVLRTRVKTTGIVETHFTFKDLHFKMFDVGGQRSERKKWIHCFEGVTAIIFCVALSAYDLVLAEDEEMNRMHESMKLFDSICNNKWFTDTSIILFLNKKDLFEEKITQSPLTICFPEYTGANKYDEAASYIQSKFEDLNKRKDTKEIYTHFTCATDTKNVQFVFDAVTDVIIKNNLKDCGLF

Compound | inhibition at 4 µM [%]
COc1cc(/C=C/C(=O)N2CCc3cnc(N4CCN(C5CCC5)CC4)nc3CC2)cc(OC)c1 [Compound 565, 2-(4-cyclobutylpiperazin-1-yl)-7-[(2E)-3-(3,5-dimethoxyphenyl)prop-2-enoyl]-6,7,8,9-tetrahydro-5H-pyrimido[4,5-d]azepine] | ≥ 90
O=C(/C=C/c1ccc(Cl)cc1)N1CCc2cnc(N3CCN(C4CCC4)CC3)nc2CC1 [Compound 549, 7-[(2E)-3-(4-chlorophenyl)prop-2-enoyl]-2-(4-cyclobutylpiperazin-1-yl)-6,7,8,9-tetrahydro-5H-pyrimido[4,5-d]azepine] | ≥ 90
CCCOc1ccccc1C(=O)N1CCc2cnc(N3CCN(C4CCC4)CC3)nc2CC1 [Compound 416, 2-(4-cyclobutylpiperazin-1-yl)-7-(2-propoxybenzoyl)-6,7,8,9-tetrahydro-5H-pyrimido[4,5-d]azepine] | ≥ 90
O=C(c1ccc(Oc2cc(Cl)cc(Cl)c2)o1)N1CCc2cnc(N3CCN(C4CCC4)CC3)nc2CC1 [Compound 472, 2-(4-cyclobutylpiperazin-1-yl)-7-[5-(3,5-dichlorophenoxy)-2-furoyl]-6,7,8,9-tetrahydro-5H-pyrimido[4,5-d]azepine] | ≥ 90
O=C(/C=C/c1ccc(C(F)(F)F)cc1)N1CCc2cnc(N3CCN(C4CCC4)CC3)nc2CC1 [Compound 550, 2-(4-cyclobutylpiperazin-1-yl)-7-{(2E)-3-[4-(trifluoromethyl)phenyl]prop-2-enoyl}-6,7,8,9-tetrahydro-5H-pyrimido[4,5-d]azepine] | ≥ 90
Cc1ccccc1/C=C/C(=O)N1CCc2cnc(N3CCN(C4CCC4)CC3)nc2CC1 [Compound 572, 2-(4-cyclobutylpiperazin-1-yl)-7-[(2E)-3-(2-methylphenyl)prop-2-enoyl]-6,7,8,9-tetrahydro-5H-pyrimido[4,5-d]azepine] | ≥ 90
O=C(Cc1cccc(F)c1)N1CCc2cnc(N3CCN(C4CCC4)CC3)nc2CC1 [Compound 513, 2-(4-cyclobutylpiperazin-1-yl)-7-[(3-fluorophenyl)acetyl]-6,7,8,9-tetrahydro-5H-pyrimido[4,5-d]azepine] | ≥ 90
Cc1cc(C)c(C(=O)N2CCc3cnc(N4CCN(C5CCC5)CC4)nc3CC2)c(C)c1 [Compound 405, 2-(4-cyclobutylpiperazin-1-yl)-7-(mesitylcarbonyl)-6,7,8,9-tetrahydro-5H-pyrimido[4,5-d]azepine] | ≥ 90
Cc1cc(C(=O)N2CCc3cnc(N4CCN(C5CCC5)CC4)nc3CC2)c(C)n1C [Compound 459, 2-(4-cyclobutylpiperazin-1-yl)-7-[(1,2,5-trimethyl-1H-pyrrol-3-yl)carbonyl]-6,7,8,9-tetrahydro-5H-pyrimido[4,5-d]azepine] | ≥ 90
COc1ncc(Cl)cc1C(=O)N1CCc2cnc(N3CCN(C4CCC4)CC3)nc2CC1 [Compound 544, 7-[(5-chloro-2-methoxypyridin-3-yl)carbonyl]-2-(4-cyclobutylpiperazin-1-yl)-6,7,8,9-tetrahydro-5H-pyrimido[4,5-d]azepine] | ≥ 90
COc1ccc(OC)c(C(=O)N2CCc3cnc(N4CCN(C5CCC5)CC4)nc3CC2)c1 [Compound 423, 2-(4-cyclobutylpiperazin-1-yl)-7-(2,5-dimethoxybenzoyl)-6,7,8,9-tetrahydro-5H-pyrimido[4,5-d]azepine] | ≥ 90

Same assay, conditions: 1 h; assay of Example 8; symbol "!" in column headed Ki; read-out: percent inhibition of agonist-induced GTP-gammaS binding to H3

Compound | inhibition at 4 µM [%]
CCOc1ccccc1CC(=O)N1CCc2cnc(N3CCN(C4CCC4)CC3)nc2CC1 [Compound 307, 2-(4-cyclobutylpiperazin-1-yl)-7-[(2-ethoxyphenyl)acetyl]-6,7,8,9-tetrahydro-5H-pyrimido[4,5-d]azepine] | ≥ 90
CC(C)CC(=O)N1CCc2cnc(N3CCN(C4CCC4)CC3)nc2CC1 [Compound 208, 2-(4-cyclobutylpiperazin-1-yl)-7-(3-methylbutanoyl)-6,7,8,9-tetrahydro-5H-pyrimido[4,5-d]azepine] | ≥ 90
Cc1cc(Cl)ccc1OCC(=O)N1CCc2cnc(N3CCN(C4CCC4)CC3)nc2CC1 [Compound 328, 7-[(4-chloro-2-methylphenoxy)acetyl]-2-(4-cyclobutylpiperazin-1-yl)-6,7,8,9-tetrahydro-5H-pyrimido[4,5-d]azepine] | ≥ 90
CC(C)c1ccc(C(=O)N2CCc3cnc(N4CCN(C5CCC5)CC4)nc3CC2)cc1 [Compound 205, 2-(4-cyclobutylpiperazin-1-yl)-7-(4-isopropylbenzoyl)-6,7,8,9-tetrahydro-5H-pyrimido[4,5-d]azepine] | ≥ 90
Cc1ncccc1C(=O)N1CCc2cnc(N3CCN(C4CCC4)CC3)nc2CC1 [Compound 202, 2-(4-cyclobutylpiperazin-1-yl)-7-[(2-methylpyridin-3-yl)carbonyl]-6,7,8,9-tetrahydro-5H-pyrimido[4,5-d]azepine] | ≥ 90
Cc1ccc(CN2CCc3cnc(N4CCN(C5CCC5)CC4)nc3CC2)cc1 [Compound 234, 2-(4-cyclobutylpiperazin-1-yl)-7-(4-methylbenzyl)-6,7,8,9-tetrahydro-5H-pyrimido[4,5-d]azepine] | ≥ 90
CCOc1ccc(CC(=O)N2CCc3cnc(N4CCN(C5CCC5)CC4)nc3CC2)cc1OC [Compound 275, 2-(4-cyclobutylpiperazin-1-yl)-7-[(4-ethoxy-3-methoxyphenyl)acetyl]-6,7,8,9-tetrahydro-5H-pyrimido[4,5-d]azepine] | ≥ 90
O=C(COc1cccc(Cl)c1)N1CCc2cnc(N3CCN(C4CCC4)CC3)nc2CC1 [Compound 330, 7-[(3-chlorophenoxy)acetyl]-2-(4-cyclobutylpiperazin-1-yl)-6,7,8,9-tetrahydro-5H-pyrimido[4,5-d]azepine] | ≥ 90
CC(C)(C)c1ccc(OCC(=O)N2CCc3cnc(N4CCN(C5CCC5)CC4)nc3CC2)cc1 [Compound 329, 7-[(4-tert-butylphenoxy)acetyl]-2-(4-cyclobutylpiperazin-1-yl)-6,7,8,9-tetrahydro-5H-pyrimido[4,5-d]azepine] | ≥ 90
O=C(Cc1ccc(Br)cc1)N1CCc2cnc(N3CCN(C4CCC4)CC3)nc2CC1 [Compound 290, 7-[(4-bromophenyl)acetyl]-2-(4-cyclobutylpiperazin-1-yl)-6,7,8,9-tetrahydro-5H-pyrimido[4,5-d]azepine] | ≥ 90
COc1cc(Br)c(/C=C/C(=O)N2CCc3cnc(N4CCN(C5CCC5)CC4)nc3CC2)cc1OC [Compound 588, 7-[(2E)-3-(2-bromo-4,5-dimethoxyphenyl)prop-2-enoyl]-2-(4-cyclobutylpiperazin-1-yl)-6,7,8,9-tetrahydro-5H-pyrimido[4,5-d]azepine] | ≥ 90
O=C(C1CCCC1)N1CCc2cnc(N3CCN(C4CCC4)CC3)nc2CC1 [Compound 217, 2-(4-cyclobutylpiperazin-1-yl)-7-(cyclopentylcarbonyl)-6,7,8,9-tetrahydro-5H-pyrimido[4,5-d]azepine] | ≥ 90
O=C(Cc1cccc(Cl)c1)N1CCc2cnc(N3CCN(C4CCC4)CC3)nc2CC1 [Compound 284, 7-[(3-chlorophenyl)acetyl]-2-(4-cyclobutylpiperazin-1-yl)-6,7,8,9-tetrahydro-5H-pyrimido[4,5-d]azepine] | ≥ 90
CCCCc1ccc(C(=O)N2CCc3cnc(N4CCN(C5CCC5)CC4)nc3CC2)cc1 [Compound 363, 7-(4-butylbenzoyl)-2-(4-cyclobutylpiperazin-1-yl)-6,7,8,9-tetrahydro-5H-pyrimido[4,5-d]azepine] | ≥ 90

Same assay, conditions: symbol ! in Ki; test compound 4 μM, 1 μM histamine; read-out: percent inhibition of agonist-induced GTP-gammaS binding to H3

Compound | inhibition at 4 µM [%]
c1cc(N2CCCC2)ccc1CN1CCc2nc(N3CCN(C4CCC4)CC3)ncc2C1 [Compound 647, 2-(4-cyclobutylpiperazin-1-yl)-6-(4-pyrrolidin-1-ylbenzyl)-5,6,7,8-tetrahydropyrido[4,3-d]pyrimidine] | ≥ 90
COc1ccccc1C(=O)N1CCc2c(ncnc2N2CCN(C3CCC3)CC2)C1 [Compound 28, 4-(4-cyclobutylpiperazin-1-yl)-7-(2-methoxybenzoyl)-5,6,7,8-tetrahydropyrido[3,4-d]pyrimidine] | ≥ 90
CC(C)CN1CCc2c(ncnc2N2CCN(C3CCC3)CC2)C1 [Compound 86, 4-(4-cyclobutylpiperazin-1-yl)-7-isobutyl-5,6,7,8-tetrahydropyrido[3,4-d]pyrimidine] | ≥ 90
CCCC(C)CN1CCc2c(ncnc2N2CCN(C3CCC3)CC2)C1 (stereo not drawn) [Compound 90, 4-(4-cyclobutylpiperazin-1-yl)-7-(2-methylpentyl)-5,6,7,8-tetrahydropyrido[3,4-d]pyrimidine] | ≥ 90
O=C(CC1CCCC1)N1CCc2c(ncnc2N2CCN(C3CCC3)CC2)C1 [Compound 47, 4-(4-cyclobutylpiperazin-1-yl)-7-(cyclopentylacetyl)-5,6,7,8-tetrahydropyrido[3,4-d]pyrimidine] | ≥ 90
CC(c1ccccc1F)N1CCc2c(ncnc2N2CCN(C3CCC3)CC2)C1 (stereo not drawn) [Compound 102, 4-(4-cyclobutylpiperazin-1-yl)-7-[1-(2-fluorophenyl)ethyl]-5,6,7,8-tetrahydropyrido[3,4-d]pyrimidine] | ≥ 90
O=C(C1CCCCC1)N1CCc2c(ncnc2N2CCN(C3CCC3)CC2)C1 [Compound 55, 4-(4-cyclobutylpiperazin-1-yl)-7-(cyclohexylcarbonyl)-5,6,7,8-tetrahydropyrido[3,4-d]pyrimidine] | ≥ 90
Cc1ccc(CN2CCc3ncnc(N4CCN(C5CCC5)CC4)c3CC2)cc1 [Compound 149, 4-(4-cyclobutylpiperazin-1-yl)-7-(4-methylbenzyl)-6,7,8,9-tetrahydro-5H-pyrimido[4,5-d]azepine] | ≥ 90

— patent US20080051387A1, “TETRAHYDROPYRIDO[3,4-D]PYRIMIDINES AND RELATED ANALOGUES” (priority 2006, published 2008)
